Structures can show the parent of a compound that is named as a salt. A value given as a limit tells only on which side of the number the result lay.

As usually defined, the melting point is the temperature of the solid-liquid transition. As for `Cn1ccc(-c2[nH]nc3c2C(=O)c2c(NC(=O)NN4CCOCC4)cccc2-3)c1` [Example CC, 3-(1-methyl-3-pyrrolyl)-5-(morpholinocarbamoylamino)indeno[1,2-c]pyrazol-4-one], the melting point amounted to 301 °C.
For the compound `CN(C)c1ccc(CC(=O)N2CCC(c3[nH]nc4c3C(=O)c3c(NC(=O)NN5CCOCC5)cccc3-4)CC2)cc1` (as salt: TFA) [Example CCXCV, 3-(1-(4-(dimethylamino)benzylcarbonyl)piperidin-4-yl)-5-(morpholinocarbamoylamino)indeno[1,2-c]pyrazol-4-one], the melting point amounted to 107 °C.
The result for `CN1CCC(C(=O)N2CCC(c3[nH]nc4c3C(=O)c3c(NC(=O)NN5CCOCC5)cccc3-4)CC2)CC1` (as salt: TFA) [Example CCLXXX, 3-(1-((1-methylpiperidin-4-yl)carbonyl)piperidin-4-yl)-5-(morpholinocarbamoylamino)indeno[1,2-c]pyrazol-4-one] reads 148 °C; that for `CC1CN(c2ccc(-c3[nH]nc4c3C(=O)c3c(NC(=O)NN5CCOCC5)cccc3-4)cc2)CCN1` (centres unmarked) (as salt: TFA) [Example CCXXXVII, 3-(4-(3-methylpiperazino)phenyl)-5-(morpholinocarbamoylamino)indeno[1,2-c]pyrazol-4-one], 230 °C; that for `CCc1[nH]nc2c1C(=O)c1c(NC(=O)CN3CCC(CN)CC3)cccc1-2` [Example CXVII, 3-(ethyl)-5-(4-(aminomethyl)piperidinoacetamido)indeno [1,2-c]pyrazol-4-one], 174 °C.
The result for `CN1CCN(CC(=O)Nc2cccc3c2C(=O)c2c-3n[nH]c2-c2ccc(N(C)C)cc2)CC1` [Example LXXVIII, 3-(4-(dimethylamino)phenyl)-5-((4-methylpiperazino)acetamido)indeno[1,2-c]pyrazol-4-one] reads greater than 300 °C.
Next, `CN(C(=O)OC(C)(C)C)[C@H]1CCN(C(=O)c2ccc(-c3[nH]nc4c3C(=O)c3c(NC(=O)NN5CCOCC5)cccc3-4)s2)C1` (as salt: TFA) [Example CLXXIX, 3-(5-(3(S)-(N-methyl-t-butoxycarbonylamino)pyrrolidinocarbonyl)-2-thienyl)-5-(morpholinocarbamoylamino)indeno[1,2-c]pyrazol-4-one]: greater than 300 °C; `CC(=O)N[C@H]1CCN(C(=O)c2ccc(-c3[nH]nc4c3C(=O)c3c(NC(=O)NN5CCOCC5)cccc3-4)s2)C1` (as salt: TFA) [Example CLXXVII, 3-(5-(3(S)-acetamidopyrrolidinocarbonyl)-2-thienyl)-5-(morpholinocarbamoylamino)indeno[1,2-c]pyrazol-4-one]: 264 °C.
As to `CN(C)C1CCN(C(=O)[C@H]2CC[C@H](c3[nH]nc4c3C(=O)c3c(NC(=O)NN5CCOCC5)cccc3-4)CC2)C1` (stereo partly drawn) (as salt: TFA) [Example CCCII, 3-(trans-4-(3-(dimethylamino)pyrrolidinocarbonyl)cyclohexyl)-5-(morpholinocarbamoylamino)indeno[1,2-c]pyrazol-4-one], the melting point was 191 °C.
Next, `O=C(Nc1cccc2c1C(=O)c1c-2n[nH]c1-c1ccc(C(=O)[C@]23CN[C@H](CN2)C3)s1)NN1CCOCC1` (as salt: TFA) [Example CLVI, 3-(5-(((1S,4S)-(+)-2,5-diazabicyclo[2.2.1]heptyl)carbonyl)-2-thienyl)-5-(morpholinocarbamoylamino)indeno [1,2-c]pyrazol-4-one]: greater than 300 °C; `CN(C)c1ccc(C(=O)N2CCC(c3[nH]nc4c3C(=O)c3c(NC(=O)NN5CCOCC5)cccc3-4)CC2)cc1` (as salt: TFA) [Example CCXCVIII, 3-(1-(4-(dimethylamino)phenylcarbonyl)piperidin-4-yl)-5-(morpholinocarbamoylamino)indeno[1,2-c]pyrazol-4-one]: 189 °C.
Next, `CN1CCN(c2ccc(-c3[nH]nc4c3C(=O)c3c(NC(=O)NN(C)C)cccc3-4)cc2)CC1` (as salt: TFA) [Example CCXXII, 3-(4-(4-methylpiperazino)phenyl)-5-((N,N-dimethylamino)carbamoylamino)indeno[1,2-c]pyrazol-4-one]: 192 °C.
In the case of `CC(C)(C)OC(=O)NC1CCCC(NC(=O)c2ccc(-c3[nH]nc4c3C(=O)c3c(NC(=O)NN5CCOCC5)cccc3-4)s2)C1` (centres unmarked) (as salt: TFA) [Example CLXXI, 3-(5-((3-(t-butoxycarbonylamino)cyclohexyl)aminocarbonyl)-2-thienyl)-5-(morpholinocarbamoylamino)indeno[1,2-c]pyrazol-4-one], the melting point is greater than 300 °C.
The result for `CC(=N)N1CCN(c2ccc(-c3[nH]nc4c3C(=O)c3c(NC(=O)NN5CCOCC5)cccc3-4)cc2)CC1` (as salt: TFA) [Example CCLIII, 3-(4-(4-(1-iminoethyl)piperazino)phenyl)-5-(morpholinocarbamoylamino)indeno[1,2-c]pyrazol-4-one] reads 240 °C; that for `O=C(Nc1cccc2c1C(=O)c1c-2n[nH]c1C1CCN(C(=O)C2CCCNC2)CC1)NN1CCOCC1` (centres unmarked) (as salt: TFA) [Example CCLXXXVII, 3-(1-(piperidin-3-ylcarbonyl)piperidin-4-yl)-5-(morpholinocarbamoylamino)indeno[1,2-c]pyrazol-4-one], 169 °C.
The result for `CC(=O)Nc1cccc2c1C(=O)c1c-2n[nH]c1-c1cccnc1` [Example XLVIII, 3-(3-pyridyl)-5-(acetamido)indeno [1,2-c]pyrazol-4-one] reads greater than 300 °C; that for `NC(=O)Nc1cccc2c1C(=O)c1c-2n[nH]c1-c1ccsc1` [Example C, 3-(3-thienyl)-5-(carbamoylamino)indeno[1,2-c]pyrazol-4-one], greater than 280 °C.
The result for `CCN(CC)C1CCN(c2ccc(-c3[nH]nc4c3C(=O)c3c(NC(=O)NN5CCOCC5)cccc3-4)cc2)CC1` (as salt: TFA) [Example CCLII, 3-(4-(4-(N,N-diethylamino)piperidino)phenyl)-5-(morpholinocarbamoylamino)indeno[1,2-c]pyrazol-4-one] reads 251 °C; that for `COC[C@H]1CCCN1NC(=O)c1ccc(-c2[nH]nc3c2C(=O)c2c(NC(=O)NN4CCOCC4)cccc2-3)s1` (as salt: TFA) [Example CLXXXVIII, 3-(5-(2(R)-(methoxymethyl)pyrrolidinoaminocarbonyl)-2-thienyl)-5-(morpholinocarbamoylamino)indeno[1,2-c]pyrazol-4-one], 266 °C.
Consider `CCC(=O)Nc1cccc2c1C(=O)c1c-2n[nH]c1-c1ccc(OC)cc1` [Example V, 3-(4-methoxyphenyl)-5-(propanamido)indeno[1,2-c]pyrazol-4-one], for which the melting point worked out at 287 °C.
Next, `COc1ccc(-c2[nH]nc3c2C(=O)c2c(NC(C)=O)cccc2-3)cc1OC` [Example XVI, 3-(3,4-dimethoxyphenyl)-5-(acetamido)indeno[1,2-c]pyrazol-4-one]: greater than 300 °C; `CN(C)CC1CCCCN1C(=O)c1ccc(-c2[nH]nc3c2C(=O)c2c(NC(=O)NN4CCOCC4)cccc2-3)s1` (centres unmarked) (as salt: TFA) [Example CLXXII, 3-(5-(2-(N,N-dimethylaminomethyl)piperidinocarbonyl)-2-thienyl)-5-(morpholinocarbamoylamino)indeno[1,2-c]pyrazol-4-one]: greater than 300 °C; `COc1ccc(-c2[nH]nc3c2C(=O)c2c(NC(N)=O)cccc2-3)cc1` [Example LXIII, 3-(4-methoxyphenyl)-5-(carbamoylamino)indeno[1,2-c]pyrazol-4-one]: greater than 300 °C.
Consider `COc1ccc(-c2[nH]nc3c2C(=O)c2c(NC(=O)Nc4ccccc4)cccc2-3)cc1` [Example XLII, 3-(4-methoxyphenyl)-5-((phenylcarbamoyl)amino)indeno [1,2-c]pyrazol-4-one], for which the melting point was greater than 300 °C.
`NCCCCC(=O)N1CCC(c2[nH]nc3c2C(=O)c2c(NC(=O)NN4CCOCC4)cccc2-3)CC1` (as salt: TFA) [Example CCLXXVII, 3-(1-(4-aminobutylcarbonyl)piperidin-4-yl)-5-(morpholinocarbamoylamino)indeno[1,2-c]pyrazol-4-one] yielded a melting point of 103 °C.
For `COc1ccc(-c2[nH]nc3c2C(=O)c2c(NC(=O)NN4CCN(C)CC4)cccc2-3)cc1` [Example LXVIII, 3-(4-methoxyphenyl)-5-((4-methylpiperazinocarbamoyl)amino)indeno[1,2-c]pyrazol-4-one], the melting point was greater than 300 °C.
The result for `COc1ccc(-c2[nH]nc3c2C(=O)c2c(NC(=O)CN)cccc2-3)cc1` [Example XXIII, 3-(4-methoxyphenyl)-5-(aminoacetamido)indeno[1,2-c]pyrazol-4-one] reads greater than 300 °C; that for `O=C(Nc1cccc2c1C(=O)c1c-2n[nH]c1C1CCN(C(=O)n2ccnc2)CC1)NN1CCOCC1` (as salt: TFA) [Example CCLXIV, 3-(1-(imidazol-1-ylcarbonyl)piperidin-4-yl)-5-(morpholinocarbamoylamino)indeno[1,2-c]pyrazol-4-one], 202 °C; that for `CCOC(=O)N1CCC(c2[nH]nc3c2C(=O)c2c(NC(=O)NN4CCOCC4)cccc2-3)CC1` (as salt: TFA) [Example CCLXII, 3-(1-ethoxycarbonylpiperidin-4-yl)-5-(morpholinocarbamoylamino)indeno[1,2-c]pyrazol-4-one], 206 °C.
Turning to `COc1ccc(-c2[nH]nc3c2C(=O)c2c(NC(=O)CN4CCSCC4)cccc2-3)cc1` [Example XXXII, 3-(4-methoxyphenyl)-5-(thiomorpholinoacetamido)indeno[1,2-c]pyrazol-4-one], the melting point came to 298 °C.
For the compound `NNC(=O)Nc1cccc2c1C(=O)c1c-2n[nH]c1-c1ccc(N2CCNCC2)cc1` (as salt: TFA) [Example CCXIII, 3-(4-piperazinophenyl)-5-(aminocarbamoylamino)indeno[1,2-c]pyrazol-4-one], the melting point amounted to 257 °C.
The compound `COc1ccc(-c2[nH]nc3c2C(=O)c2c(NC(=O)Cc4cccc(OC)c4)cccc2-3)cc1` [Example XI, 3-(4-methoxyphenyl)-5-((3-methoxyphenyl)acetamido)indeno[1,2-c]pyrazol-4-one] registered a melting point greater than 300 °C.

These data come from US6407103B2, “Indeno [1,2-c] pyrazol-4-ones and their uses” (Bristol-Myers Squibb Pharma Company, priority 1998, dated 2002).
